From patent US20230285405A1, “Pharmaceuticals for Treating or Preventing Nidoviruses and Picornaviruses” (priority 2020, published 2023)
Where a name gives a salt, the structure may show the parent alone. Read-outs that look alike come from different tables or passages of the source.

Columns and labels:
OC43 = assay: Drug screening: OC43 nucleoprotein staining in infected A549-mRuby cells; format: cell-based, human beta coronavirus OC43
In short: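 Repurposing screen: drugs at 10 μM final added 1 h after OC43 infection (MOI 0.3) of H2B-mRuby A549 cells, 4-day incubation at 33° C. Cell counts imaged at day 0 and day 4; nucleoprotein staining per cell normalized to untreated infected wells, hit threshold >3 SD in duplicate screens, non-toxic.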

A549-mRuby cells = assay: Drug screening: effect on cell growth (cell number day 4 / day 0); details: 10 μM drug; for Growth_1: number of cells at day 4 divided by number of cells at day 0 / toxic_1: repeat #1; for Growth_2: number of cells at day 4 divided by number of cells at day 0 / toxic_2: repeat #2
In short: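 Growth was scored as day 4/day 0 cell count from images of OC43-infected (MOI 0.3) A549-mRuby nuclear-reporter cells. Compounds were added at 10 μM final after a 1 h infection at 33° C, followed by 4 days of culture at 33° C in two independent screens.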

[1] = 10 μM drug, MOI 0.3, 4 days, OC43 staining normalized to no-drug controls, mean of the two screen repeats
[2] = 10 μM drug, MOI 0.3, 4 days, normalized to no-drug controls in the same plate, repeat #1
[3] = 10 μM drug, MOI 0.3, 4 days, normalized to no-drug controls in the same plate, repeat #2
[4] = Betacoronavirus 1, OC43, 96 h, 10 μM drug, MOI 0.3, 4 days, OC43 staining normalized to no-drug controls, mean of the two screen repeats, read-out: OC43_mean
[5] = Betacoronavirus 1, OC43, 96 h, 10 μM drug, MOI 0.3, 4 days, normalized to no-drug controls in the same plate, repeat #1, read-out: OC43_1: % staining of OC43 in screen repeat #1
[6] = Betacoronavirus 1, OC43, 96 h, 10 μM drug, MOI 0.3, 4 days, normalized to no-drug controls in the same plate, repeat #2, read-out: OC43_2: % staining of OC43 in screen repeat #2

Molecule | OC43_mean (OC43; [1]) [%] | OC43_1: % staining of OC43 in screen repeat #1 (OC43; [2]) [%] | OC43_2: % staining of OC43 in screen repeat #2 (OC43; [3]) [%] | hit_1 (OC43; 10 μM drug, repeat #1) | hit_2 (OC43; 10 μM drug, repeat #2) | Growth_1: number of cells at day 4 divided by number of cells at day 0 (A549-mRuby cells) | toxic_1 (A549-mRuby cells) | Growth_2: number of cells at day 4 divided by number of cells at day 0 (A549-mRuby cells) | toxic_2 (A549-mRuby cells) | activity at 10 µM (OC43; [4]) [%] | activity at 10 µM (OC43; [5]) [%] | activity at 10 µM (OC43; [6]) [%] | activity at 10 µM (OC43; Betacoronavirus 1, 96 h, 10 μM drug, MOI 0.3, 4 days, OC43 staining normalized to no-drug controls, mean of the two screen repeats, read-out: OC43_mean) [%] | OC43_mean (OC43) [%]
CN1CCN(CCCN2c3ccccc3Sc3ccc(C(F)(F)F)cc32)CC1.Cl.Cl [Trifluoperazine 2HCl] | 31.6 | 33.8 | 29.5 | 1 | 1 | 2.3 | 0 | 2.1 | 0 |  |  |  |  | 
CN1[C@@H]2CC[C@H]1C[C@@H](OC(=O)c1c[nH]c3ccccc13)C2 [Tropisetron HCl] |  |  |  | 1 | 1 | 5.8 | 0 | 5.5 | 0 | 58 | 52.6 | 63.4 |  | 
C=C[C@]1(C)C[C@@H](OC(=O)CSC(C)(C)CNC(=O)[C@H](N)C(C)C)[C@]2(C)[C@H](C)CC[C@]3(CCC(=O)[C@H]32)[C@@H](C)[C@@H]1O [Valnemulin HCl] |  |  |  | 1 | 1 | 4.4 | 0 | 4.5 | 0 |  | 27.7 | 37.1 | 32.4 | 
CCOC(=O)N[C@@H]1CC[C@@H]2[C@@H](C1)C[C@H]1C(=O)O[C@H](C)[C@H]1[C@H]2/C=C/c1ccc(-c2cccc(F)c2)cn1 [Vorapaxar] |  |  |  | 1 | 1 | 4.4 | 0 | 4.1 | 0 | 50.9 | 53.5 | 48.3 |  | 
Cc1cc(C(C)(C)C)cc(C)c1CC1=NCCN1 [Xylometazoline HCl] |  |  |  | 1 | 1 | 5.4 | 0 | 5.7 | 0 | 49.7 | 54 | 45.4 |  | 
Alimemazine Tartrate | 40.8 | 47.9 | 33.7 | 1 | 1 | 2.6 | 0 | 2.2 | 0 |  |  |  |  | 
Carvedilol Phosphate | 28.9 | 32.3 | 25.5 | 1 | 1 | 4.4 | 0 | 2.9 | 0 |  |  |  |  | 
Dimemorfan phosphate |  | 39.7 | 26.2 | 1 | 1 | 6.0 | 0 | 5.4 | 0 |  |  |  |  | 33.0
Ibutilide Fumarate | 54.4 | 45.9 | 63.0 | 1 | 1 | 4.8 | 0 | 4.8 | 0 |  |  |  |  | 
Ifenprodil Tartrate | 25.6 | 29.0 | 22.1 | 1 | 1 | 4.6 | 0 | 4.9 | 0 |  |  |  |  | 
